Activity calls are given as the source filed them. The rule behind the calls is not given here.
Tests used:
[1] = physchem
Description: Dissociation constant (pKa)

[2] = organism: Felis catus; experiment: In vitro effect of Gamma-aminobutyric acid enhancement on single neurons of cat spinal cord (No significant activity); assay type: functional
[3] = biological target: T1, GABA transporter (Rattus norvegicus, UniProt P31647+P23978+P31646+P48056); assay type: functional, subcellular, Brain
Description: In vitro effect on GABA uptake in a crude preparation of synaptosomes from rat brain.

[4] = organism: Felis catus; experiment: In vitro effect of glycine antagonism on single neurons in the cat spinal cord; Glycine antagonists are indicated by the Delta symbol.; assay type: functional, organism-based; conditions: filed as antagonist
[5] = I/U ratio for neutral amino acids.; assay type: functional
[6] = biological target: GABA-A receptor; anion channel
Description: In vitro affinity for GABA binding sites on purified synaptic membranes from rat brain.

[7] = biological target: T2, GABA-A receptor; anion channel (Homo sapiens) (UniProt P14867+P47870+P18507+P28472+P48169+Q99928+Q9UN88+P34903+O00591+O14764+Q8N1C3+P18505+P78334+P47869+P31644+Q16445); experiment: In vitro effect on Gamma-aminobutyric acid agonism on single neurons of cat spinal cord (- is less active than GABA); assay type: functional, tissue-based; conditions: Felis catus, filed as partial agonist, target entry is the homologue from another species
[8] = organism: Felis catus; experiment: In vitro effect of GABA enhancement on single neurons in the cat spinal cord;; assay type: functional, organism-based
[9] = biological target: Gamma-aminobutyric acid receptor subunit gamma-1 (Rattus norvegicus, UniProt P23574); experiment: In vitro affinity for GABA binding sites on purified synaptic membranes from rat brain
[10] = biological target: T1, GABA transporter; experiment: In vitro effect on GABA uptake in a crude preparation of synaptosomes from rat brain; assay type: functional, subcellular
[11] = I/U ratio for neutral amino acids; assay type: functional
[12] = organism: Felis catus; experiment: In vitro effect of Gamma-aminobutyric acid enhancement on single neurons of cat spinal cord (ND = no data, No significant activity); assay type: functional
[13] = organism: Felis catus; experiment: In vitro effect of glycine antagonism on single neurons of cat spinal cord; Glycine antagonists are indicated by Delta symbol.; assay type: functional, organism-based; conditions: filed as antagonist
[14] = organism: Felis catus; experiment: In vitro effect of Gamma-aminobutyric acid enhancement on single neurons of cat spinal cord; assay type: functional
[15] = biological target: T2, GABA-A receptor; anion channel (Homo sapiens); conditions: Felis catus; Spinal cord; filed as agonist

Gamma-aminobutyric acid receptor subunit gamma-1, sequence (P23574 whole entry): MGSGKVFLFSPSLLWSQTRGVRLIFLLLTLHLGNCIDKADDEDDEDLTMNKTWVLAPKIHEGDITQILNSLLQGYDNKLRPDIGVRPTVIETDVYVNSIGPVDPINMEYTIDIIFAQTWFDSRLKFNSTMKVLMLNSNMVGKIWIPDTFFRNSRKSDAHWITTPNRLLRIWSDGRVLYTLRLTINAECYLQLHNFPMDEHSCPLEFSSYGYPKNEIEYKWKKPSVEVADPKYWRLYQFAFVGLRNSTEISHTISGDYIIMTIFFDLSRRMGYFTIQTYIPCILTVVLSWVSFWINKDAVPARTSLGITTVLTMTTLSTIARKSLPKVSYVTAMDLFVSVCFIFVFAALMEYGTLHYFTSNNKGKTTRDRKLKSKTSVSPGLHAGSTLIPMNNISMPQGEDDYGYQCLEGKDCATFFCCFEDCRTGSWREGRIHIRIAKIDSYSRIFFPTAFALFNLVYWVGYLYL

| pKa [1] | IC50 [3] [µM] | IC50 [6] [µM] | Structure (SMILES) | Ratio [5] | other results |
| --- | --- | --- | --- | --- | --- |
|  | 400 | 31 | Oc1nsc2c1CCNCC2 | 200 | GABA enhancement [12]: inactive; Glycine antagonism [13]: Antagonist |
| 7.3 |  |  | COC(=O)N1CCc2c(O)nsc2C1 |  |  |
| 7.4 |  |  | COC(=O)N1CCc2snc(O)c2C1 |  |  |
| 6.1 | 230 | > 100 | Oc1nsc2c1CNCC2 | 63 | GABA enhancement [14]: Active |

Further lines, the compound ahead of its results:

| Structure (SMILES) | pKa [1] | IC50 [3] [µM] | IC50 [6] [µM] | Ratio [5] | other results |
| --- | --- | --- | --- | --- | --- |
| COC(=O)N1CCc2c(O)noc2C1 | 5.3 |  |  |  |  |
| Oc1noc2c1CCNCC2 | 4.8 | > 500 | 15 | 4000 | GABA enhancement [2]: inactive; Glycine antagonism [4]: Antagonist |
| Oc1nsc2c1CCNC2 | 6.1 | 220 | 42 | 16 | GABA agonism [7]: Partial agonist |
| Oc1noc2c1CNCC2 |  |  |  |  | GABA enhancement [8]: Active; IC50 [9]: 72 µM; IC50 [10]: 160 µM; Ratio [11]: 2500 |
| COc1noc2c1CNCC2 | 7.7 |  |  |  |  |
| COc1noc2c1CCNC2 | 7.1 |  |  |  |  |
| O=C(O)N1CCc2onc(O)c2CC1 | 5.6 |  |  |  |  |
| NCCCC(=O)O |  |  |  |  | GABA agonism [15]: Agonist |
| COC(=O)N1CCc2snc(O)c2CC1 | 7.6 |  |  |  |  |
